Laboratory results from patent US12171229B2, “Heteroaryl-triazole and heteroaryl-tetrazole compounds as pesticides” (BAYER AKTIENGESELLSCHAFT, priority 2018, dated 2024).

Key:
Assay type in all cases: in vivo
Ctenocephalides felis [1] = assay: Ctenocephalides felis in-vitro contact test, adult cat flea; conditions: 5 μg/cm^2 (=500 g/ha), after 48 hours, adult cat fleas, read-out: efficacy (fleas dead or moribund)
In short: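 Compound in acetone coated onto inner walls of glass tubes, e.g. 900 ppm giving 5 μg/cm². After drying, 5–10 adult C. felis added per tube and held at room temperature. At 48 h, fleas unable to escape a 45–50 °C heating plate within 5 min scored dead/moribund, giving % efficacy.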

Boophilus microplus = Boophilus microplus injection test; conditions: Rhipicephalus microplus, 168 h; 20 μg/animal injected into the abdomen; adult engorged female ticks; egg deposition after 7 days; read-out: efficacy (infertile eggs)
In short: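 Efficacy, from 0% (all eggs fertile) to 100% (all infertile), was scored on eggs laid by five engorged adult females. Each female was injected intra-abdominally with 1 μl of compound solution in DMSO. Fertile egg laying was checked at 7 days, with uncertain eggs kept until hatching at about 42 days.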

Ctenocephalides felis [2] = assay: Ctenocephalides felis oral test; conditions: 48 h, 100 ppm in cattle blood, after 2 days, adult unfed cat fleas
In short: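 Compound dissolved in DMSO and diluted in cattle blood to test concentration, offered to ~20 unfed adult fleas via a parafilm-sealed blood chamber held at 37° C (fleas at room temperature). Kill recorded at 2 days as % mortality.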

Diabrotica balteata = Diabrotica balteata spray test; conditions: Diabrotica balteata, in Triticum aestivum, 168 h, after 7 days, larvae on wheat seeds, read-out: efficacy (seedlings grown up)
In short: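 Scoring at 7 days compares seedling growth with untreated, uninfested controls (100% = equal growth, 0% = none grown). Wheat seedlings germinated 1 day on agar, 5 per well, received a spray of test solution made in 1000 ppm emulsifier water. Each unit then received 10–20 beetle larvae.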

Myzus persicae = Myzus persicae oral test; conditions: 120 h, 4 ppm, after 5 days
In short: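 Aphid mortality (%) was recorded 5 days after a mixed Myzus persicae population began sucking, through parafilm, on compound solutions (acetone stock diluted with water) combined with sugar-supplemented IPL41 medium.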

[3] = test system: Aedes aegypti strain MONHEIM; assay: Aedes aegypti test (AEDSAE surface treatment & contact assay); conditions: 24 hours after contact, read-out: efficacy (mortality)
In short: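 Compound dissolved in acetone (2 mg/ml) with 2000 ppm rapeseed oil methyl ester, applied to glazed tile and dried; adult strain MONHEIM mosquitoes exposed 30 minutes. Percent mortality scored 24 hours after contact.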

[4] = test system: Anopheles funestus strain FUMOZ-R; assay: Anopheles funestus test (ANPHFU surface treatment & contact assay); conditions: surface concentration 4 mg/m^2, exposure 30 minutes, 24 hours after contact, read-out: efficacy (mortality)
In short: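 Compound dissolved in acetone (2 mg/ml) with 2000 ppm rapeseed oil methyl ester and applied to a glazed tile. After acetone evaporation, adult FUMOZ-R mosquitoes were exposed to the dried surface for 30 min. Percent mortality was scored 24 h after contact.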

[5] = test system: Musca domestica strain WHO-N; assay: Musca domestica test (MUSCDO surface treatment & contact assay); conditions: 24 hours after contact, read-out: efficacy (mortality)
In short: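 Adult WHO-N flies exposed for 30 minutes on a glazed tile coated with compound dissolved in acetone (2 mg/ml) with 2000 ppm rapeseed oil methyl ester, acetone evaporated. Percent mortality read 24 hours after contact.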

[6] = surface concentration 4 mg/m^2, exposure 30 minutes
[7] = surface concentration 20 mg/m^2, exposure 30 minutes

## C[C@H](NC(=O)c1cc(C(F)(F)F)cc(C(F)(F)F)c1)c1ncnn1-c1ccc(C#N)cn1 [Example I-052]
Ctenocephalides felis [1]
  pest or weed control at 5 µg/cm2: 90%
Boophilus microplus
  pest or weed control at 0.02 mg: 100%
Ctenocephalides felis [2]
  mortality at 100 ppm: 100%
Diabrotica balteata; 80 μg/well (=250 g/ha)
  pest or weed control at 80 µg/disc, 250 g/ha: 100%
Diabrotica balteata; 160 μg/well (=500 g/ha)
  pest or weed control at 160 µg/disc, 500 g/ha: 100%
Myzus persicae
  mortality at 4 ppm: 100%
[3]; [6]
  mortality at 4 mg/m2: 90 to 100%
[3]; [7]
  mortality at 20 mg/m2: 90 to 100%
[4]
  mortality at 4 mg/m2: 85 to 100%
[5]; [6]
  mortality at 4 mg/m2: 90 to 100%
[5]; [7]
  mortality at 20 mg/m2: 90 to 100%
